According to paper PMC7932521, “2-aminobenzimidazoles for leishmaniasis: From initial hit discovery to in vivo profiling” (PLoS Neglected Tropical Diseases, 2021):
pEC50, pIC50: −log10 of the molar value.

Tested on: not listed separately
Test: Experimental distribution coefficient (eLogD)
Assay type: physicochemical
Settings: S1 Data
In short: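 Lipophilicity derived from retention time on an Ascentis RP-Amide reverse-phase column by LC-MS/MS, compounds at 1.0 μg/mL with internal standard; mobile phases 5% methanol in 10mM ammonium acetate pH 7.4 and 100% methanol. LogD calculated from a linear calibration of eight standards' retention times against known LogD.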

Row | Structure (SMILES) | eLogD
1 | Cn1nccc1C(=O)Nc1nc2ccc(C#N)cc2n1CC(C)(C)C [Compound 29, O=C(Nc1n(CC(C)(C)C)c(c2n1)cc(C#N)cc2)c3n(C)ncc3] | 3.39

Same assay, conditions: reverse stationary phase HPLC column (Ascentis RP-Amide); experimental, pH 7.4

Row | Structure (SMILES) | chromatographic logD
2 | Cn1nccc1C(=O)Nc1nc2ccc(C#N)cc2n1CC(C)(C)C [Compound 29, O=C(Nc1n(CC(C)(C)C)c(c2n1)cc(C#N)cc2)c3n(C)ncc3] | 3.4

Molecular target: T1, 5-HT2B (Homo sapiens, UniProt P41595)
T1 construct: expressed in transfected cells; host or cells: CHO
Test: Bioprofiling 6pt Antag 5-HT2B CHO
Assay type: cell-based
Settings: antagonist readout vs Serotonin (5-HT)
Description: (§1) The compounds were evaluated across a panel of 20 liability targets (37 functional assays) which included functional cell-based GPCRs and ion channels in both agonist and antagonist readout, measuring calcium flux and biochemical functional assays for nuclear hormone receptors and phosphodiesterases using TR-FRET format, in a 6 point 1:3 dilution dose series (maximum final concentration of 10 μM).

T1 sequence (P41595 whole entry): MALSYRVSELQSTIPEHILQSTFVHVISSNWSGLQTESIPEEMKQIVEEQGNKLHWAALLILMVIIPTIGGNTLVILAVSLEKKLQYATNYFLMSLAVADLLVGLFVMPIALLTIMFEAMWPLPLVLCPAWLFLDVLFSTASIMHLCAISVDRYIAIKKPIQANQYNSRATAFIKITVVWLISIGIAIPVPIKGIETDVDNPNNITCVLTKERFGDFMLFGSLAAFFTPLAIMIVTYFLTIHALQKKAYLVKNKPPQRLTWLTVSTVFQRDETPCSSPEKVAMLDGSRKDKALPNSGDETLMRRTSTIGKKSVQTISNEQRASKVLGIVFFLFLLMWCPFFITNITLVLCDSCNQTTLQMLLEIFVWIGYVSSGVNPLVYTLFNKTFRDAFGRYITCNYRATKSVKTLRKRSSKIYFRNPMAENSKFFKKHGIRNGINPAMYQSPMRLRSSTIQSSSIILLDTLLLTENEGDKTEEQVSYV

Row | Structure (SMILES) | pIC50
3 | Cn1nccc1C(=O)Nc1nc2ccc(C#N)cc2n1CC(C)(C)C [Compound 29, O=C(Nc1n(CC(C)(C)C)c(c2n1)cc(C#N)cc2)c3n(C)ncc3] | < 5.00

Tested on: not listed separately
Test: HEPG2 cytotoxicity
Assay type: cell-based
Settings: human, HepG2 cells; S1 Data
Excerpt: Supplement pntd.0009196.s001.xlsx, sheet "Complete Dataset" | column: HEPG2 CC50 (uM)

Row | Structure (SMILES) | CC50 [µM]
4 | Cn1nccc1C(=O)Nc1nc2ccc(C#N)cc2n1CC(C)(C)C [Compound 29, O=C(Nc1n(CC(C)(C)C)c(c2n1)cc(C#N)cc2)c3n(C)ncc3] | 9.08

Tested on: not listed separately
Test: Plasma stability
Assay type: in vitro ADME, mouse
Settings: % remaining after 6h
Description: Pooled plasma was thawed in a water bath at 37°C and centrifuged at 4,000 rpm for 5 min to remove any clots. Plasma solution was prepared by adding PBS (pH 7.4) in a 1:1 ratio. It was not necessary to adjust the pH of the final plasma solution. Plasma:PBS and test compound solutions were added to the incubation plate at a final concentration of 2 μM. The plate was incubated in a shaker at 37°C and 50 rpm. Samples were removed (25 μL) from each well of the incubation plate at multiple timepoints and added to a plate containing 100 μL of quench solution (200 ng/mL tolbutamide in 50% acetonitrile/methanol) to precipitate protein. The quenched aliquots were centrifuged at 4000 rpm for 10 min at 5°C. An aliquot of supernatant was transferred from each well to a plate for analysis by LC-MS/MS. Results were calculated as the percentage of remaining parent compound in plasma after incubation.

Row | Structure (SMILES) | Mouse plasma stability [%]
5 | Cn1nccc1C(=O)Nc1nc2ccc(C#N)cc2n1CC(C)(C)C [Compound 29, O=C(Nc1n(CC(C)(C)C)c(c2n1)cc(C#N)cc2)c3n(C)ncc3] | 99.8

Same assay, conditions: S1 Data

Row | Structure (SMILES) | Plasma Stability [%]
6 | Cn1nccc1C(=O)Nc1nc2ccc(C#N)cc2n1CC(C)(C)C [Compound 29, O=C(Nc1n(CC(C)(C)C)c(c2n1)cc(C#N)cc2)c3n(C)ncc3] | 99.80

Molecular target: T2, CB1 (Homo sapiens, UniProt P21554)
T2 construct: expressed in transfected cells; host or cells: CHO
Test: Bioprofiling 6pt Antag CB1 CHO
Assay type: cell-based
Settings: antagonist readout vs WIN 55,212-2
Description: as §1

T2 sequence (P21554 whole entry): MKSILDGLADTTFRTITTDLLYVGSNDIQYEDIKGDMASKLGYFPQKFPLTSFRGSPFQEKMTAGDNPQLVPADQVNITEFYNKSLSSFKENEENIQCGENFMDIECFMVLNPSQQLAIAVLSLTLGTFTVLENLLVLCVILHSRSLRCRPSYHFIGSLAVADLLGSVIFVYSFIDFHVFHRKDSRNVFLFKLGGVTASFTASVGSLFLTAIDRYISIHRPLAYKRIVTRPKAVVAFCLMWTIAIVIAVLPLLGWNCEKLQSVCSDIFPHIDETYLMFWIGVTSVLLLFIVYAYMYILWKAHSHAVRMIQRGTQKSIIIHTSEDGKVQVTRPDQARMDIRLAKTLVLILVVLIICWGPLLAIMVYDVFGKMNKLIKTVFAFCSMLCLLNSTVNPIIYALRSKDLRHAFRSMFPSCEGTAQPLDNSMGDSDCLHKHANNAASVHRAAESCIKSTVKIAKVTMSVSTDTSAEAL

Row | Structure (SMILES) | pIC50
7 | Cn1nccc1C(=O)Nc1nc2ccc(C#N)cc2n1CC(C)(C)C [Compound 29, O=C(Nc1n(CC(C)(C)C)c(c2n1)cc(C#N)cc2)c3n(C)ncc3] | < 5.00

Molecular target: T3, H1 (Homo sapiens, UniProt P35367)
T3 construct: expressed in transfected cells; host or cells: CHO
Test: Bioprofiling 6pt Antag H1 CHO
Assay type: cell-based
Settings: antagonist readout vs Histamine
Description: as §1

T3 sequence (P35367 whole entry): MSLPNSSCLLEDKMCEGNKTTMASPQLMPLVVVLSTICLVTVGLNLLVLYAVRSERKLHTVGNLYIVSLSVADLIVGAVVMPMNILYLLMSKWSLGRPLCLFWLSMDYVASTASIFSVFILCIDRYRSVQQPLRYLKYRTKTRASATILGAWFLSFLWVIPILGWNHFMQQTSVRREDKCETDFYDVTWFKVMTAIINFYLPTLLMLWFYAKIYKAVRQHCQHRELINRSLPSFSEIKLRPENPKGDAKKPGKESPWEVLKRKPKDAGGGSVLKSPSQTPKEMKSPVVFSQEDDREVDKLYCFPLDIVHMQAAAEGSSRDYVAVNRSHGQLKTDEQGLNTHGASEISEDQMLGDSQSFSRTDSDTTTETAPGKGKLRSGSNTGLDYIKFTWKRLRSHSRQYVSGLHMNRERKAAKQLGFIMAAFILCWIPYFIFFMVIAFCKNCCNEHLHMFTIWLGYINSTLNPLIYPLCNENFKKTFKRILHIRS

Row | Structure (SMILES) | pIC50
8 | Cn1nccc1C(=O)Nc1nc2ccc(C#N)cc2n1CC(C)(C)C [Compound 29, O=C(Nc1n(CC(C)(C)C)c(c2n1)cc(C#N)cc2)c3n(C)ncc3] | < 5.00

Molecular target: T4, 5-HT1A (Homo sapiens, UniProt P08908)
T4 construct: expressed in transfected cells; host or cells: CHO
T4 sequence (P08908 1-422): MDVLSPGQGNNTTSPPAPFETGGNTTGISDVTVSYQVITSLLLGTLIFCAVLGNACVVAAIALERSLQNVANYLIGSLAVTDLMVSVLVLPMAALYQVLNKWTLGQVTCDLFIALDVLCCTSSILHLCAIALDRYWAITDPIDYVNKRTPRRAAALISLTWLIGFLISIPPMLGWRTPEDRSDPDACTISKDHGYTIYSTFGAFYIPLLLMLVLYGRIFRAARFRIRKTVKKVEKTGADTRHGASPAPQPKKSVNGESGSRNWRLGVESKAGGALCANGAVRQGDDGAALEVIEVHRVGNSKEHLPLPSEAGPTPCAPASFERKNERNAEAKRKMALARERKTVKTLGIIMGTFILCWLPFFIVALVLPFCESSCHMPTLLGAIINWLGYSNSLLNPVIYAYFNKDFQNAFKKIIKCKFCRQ
Test: Bioprofiling 6pt Ag 5-HT1A CHO
Assay type: cell-based
Settings: agonist readout
Description: as §1

Row | Structure (SMILES) | pEC50
9 | Cn1nccc1C(=O)Nc1nc2ccc(C#N)cc2n1CC(C)(C)C [Compound 29, O=C(Nc1n(CC(C)(C)C)c(c2n1)cc(C#N)cc2)c3n(C)ncc3] | < 5.00

Molecular target: T5, ETA (Homo sapiens, UniProt P25101)
T5 construct: expressed in transfected cells; host or cells: CHO
T5 sequence (P25101 21-427): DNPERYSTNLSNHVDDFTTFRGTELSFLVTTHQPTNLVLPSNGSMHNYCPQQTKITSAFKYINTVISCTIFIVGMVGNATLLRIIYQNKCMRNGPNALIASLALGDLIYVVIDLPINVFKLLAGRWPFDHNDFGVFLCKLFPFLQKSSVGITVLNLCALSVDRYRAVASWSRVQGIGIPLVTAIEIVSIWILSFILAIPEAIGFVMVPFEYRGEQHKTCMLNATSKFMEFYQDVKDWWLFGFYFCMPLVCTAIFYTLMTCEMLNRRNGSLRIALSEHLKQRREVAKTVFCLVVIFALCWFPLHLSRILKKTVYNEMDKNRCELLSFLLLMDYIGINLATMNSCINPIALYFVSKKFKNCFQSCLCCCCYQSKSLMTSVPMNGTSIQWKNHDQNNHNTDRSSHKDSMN
Test: Bioprofiling 6pt Antag ETA CHO
Assay type: cell-based
Settings: antagonist readout vs Endothelin-1 (ET-1)
Description: as §1

Row | Structure (SMILES) | pIC50
10 | Cn1nccc1C(=O)Nc1nc2ccc(C#N)cc2n1CC(C)(C)C [Compound 29, O=C(Nc1n(CC(C)(C)C)c(c2n1)cc(C#N)cc2)c3n(C)ncc3] | < 5.00

Molecular target: T6, A1 (Homo sapiens, UniProt P30542)
T6 construct: expressed in transfected cells; host or cells: CHO
T6 sequence (P30542 1-326): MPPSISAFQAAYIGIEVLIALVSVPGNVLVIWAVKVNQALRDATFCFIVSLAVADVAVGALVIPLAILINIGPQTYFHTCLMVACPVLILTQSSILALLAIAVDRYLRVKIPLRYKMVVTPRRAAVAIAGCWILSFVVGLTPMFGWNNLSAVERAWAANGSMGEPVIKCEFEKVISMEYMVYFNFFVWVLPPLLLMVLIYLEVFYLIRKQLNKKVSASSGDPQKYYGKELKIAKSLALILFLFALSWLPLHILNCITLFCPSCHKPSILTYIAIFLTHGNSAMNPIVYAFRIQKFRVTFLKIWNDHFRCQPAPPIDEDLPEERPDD
Test: Bioprofiling 6pt Ag A1 CHO
Assay type: cell-based
Settings: agonist readout
Description: as §1

Row | Structure (SMILES) | pEC50
11 | Cn1nccc1C(=O)Nc1nc2ccc(C#N)cc2n1CC(C)(C)C [Compound 29, O=C(Nc1n(CC(C)(C)C)c(c2n1)cc(C#N)cc2)c3n(C)ncc3] | < 5.00

Molecular target: T1, 5-HT2B
Test: Bioprofiling 6pt Ag 5-HT2B CHO
Assay type: cell-based
Settings: agonist readout
Description: as §1

Row | Structure (SMILES) | pEC50
12 | Cn1nccc1C(=O)Nc1nc2ccc(C#N)cc2n1CC(C)(C)C [Compound 29, O=C(Nc1n(CC(C)(C)C)c(c2n1)cc(C#N)cc2)c3n(C)ncc3] | < 5.00

Molecular target: T7, ETB (Homo sapiens, UniProt P24530)
T7 construct: expressed in transfected cells; host or cells: CHO
T7 sequence (P24530 27-442): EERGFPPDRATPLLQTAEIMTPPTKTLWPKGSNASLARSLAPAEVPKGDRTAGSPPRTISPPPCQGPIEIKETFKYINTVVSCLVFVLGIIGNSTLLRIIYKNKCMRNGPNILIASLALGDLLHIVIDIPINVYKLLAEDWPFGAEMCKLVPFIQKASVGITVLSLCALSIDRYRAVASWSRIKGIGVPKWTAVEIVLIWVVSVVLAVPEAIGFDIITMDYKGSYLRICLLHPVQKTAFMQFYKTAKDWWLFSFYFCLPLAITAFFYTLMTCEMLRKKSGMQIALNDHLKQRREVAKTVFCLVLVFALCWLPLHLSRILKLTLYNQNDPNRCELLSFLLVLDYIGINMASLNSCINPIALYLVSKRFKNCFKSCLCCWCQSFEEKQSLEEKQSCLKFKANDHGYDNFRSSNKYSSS
Test: Bioprofiling 6pt Antag ETB CHO
Assay type: cell-based
Settings: antagonist readout vs BQ-3020
Description: as §1

Row | Structure (SMILES) | pIC50
13 | Cn1nccc1C(=O)Nc1nc2ccc(C#N)cc2n1CC(C)(C)C [Compound 29, O=C(Nc1n(CC(C)(C)C)c(c2n1)cc(C#N)cc2)c3n(C)ncc3] | < 5.00
